{"source": "patent US10201175B2", "about": "“N-acylated 1-aminocycloalkyl carboxylic acids as food flavouring compounds” (Givaudan S.A., priority 2012, dated 2019)", "key": {"[1]": {"experiment": "Expert taster evaluation, test on Kikkoman soy sauce low salt", "conditions": "0.5 ppm in Kikkoman soy sauce low salt; salt level in application 0.3-1.0%", "description": "(§1) Samples were prepared and evaluated by expert tasters. Tasters were asked to describe the samples focusing on authentic taste, mouthfeel, fullness, salivation, salty-ness, umami, sweetness, juiciness, richness, long lastingness and fattiness.\nTest on Kikkoman soy sauce low salt\n(§2) Salt level pure product between 5-40%\n(§3) Salt level in application 0.3-1.0%"}, "[2]": {"experiment": "Expert taster evaluation, test in fish sauce", "conditions": "0.5 ppm in fish sauce; salt level in application 0.3-1.0%", "description": "as §1, §2, §3"}, "[3]": {"experiment": "Expert taster evaluation, test in mayonnaise", "conditions": "0.5 ppm in low fat mayonnaise (27% fat)", "description": "as §1\nFat levels between 10-80%\nLow fat Mayonnaise (27% Fat)"}, "[4]": {"experiment": "Expert taster evaluation, test in dressings", "conditions": "0.5 ppm in low fat salad dressing (13.6% fat)", "description": "as §1\nLow fat salad dressing (13.6% Fat)"}, "[5]": {"experiment": "Expert taster evaluation, test in soups and bouillons", "conditions": "0.7% salt, 0.5% fat", "description": "as §1\nTest in Soups and Bouillons\nStandard Chicken bouillon base"}, "[6]": {"experiment": "Expert taster evaluation, test in jus and fonds", "conditions": "40 ppb in beef jus", "description": "as §1"}, "[7]": {"experiment": "Expert taster evaluation, test in cheese (spreadable cheese ERU)", "conditions": "0.5 ppm in spreadable cheese ERU", "description": "as §1"}, "[8]": {"experiment": "Expert taster evaluation, test in cheese sauce", "conditions": "0.5 ppm in cheese sauce, 5% fat, 1.6% salt", "description": "as §1\nCheese sauce: 5% fat 1.6% salt"}}, "data": [{"smiles": "CCCCCCCC/C=C\\CCCCCCCC(=O)NC1(C(=O)O)CC1", "note": "[C18:1-ACCA, N-oleoyl 1-amino-cyclopropyl carboxylic acid]", "values": [{"measurement": "taste description by expert tasters", "setting": "[1]", "result": "Strong upfront saltiness lingering, very strong saltiness"}, {"measurement": "taste description by expert tasters", "setting": "[2]", "result": "Strong saltiness lingering, strong body mouthfeel"}, {"measurement": "taste description by expert tasters", "setting": "[3]", "result": "Nice balanced, full mouthfeel, increased eggyness"}, {"measurement": "taste description by expert tasters", "setting": "[4]", "result": "Increased mouthfeel body less acidic"}, {"measurement": "taste description by expert tasters", "setting": "[5]; 0.2 ppm in standard chicken bouillon base", "result": "Saltier, Stronger and more umami"}, {"measurement": "taste description by expert tasters", "setting": "[5]; 0.5 ppm in standard chicken bouillon base", "result": "More body and fatty notes, salivating and good aftertaste"}, {"measurement": "taste description by expert tasters", "setting": "[6]", "result": "more salty, fatty, total profile is enhanced"}, {"measurement": "taste description by expert tasters", "setting": "[7]", "result": "Strong umami, lingering cheese bite"}, {"measurement": "taste description by expert tasters", "setting": "[8]", "result": "Strong umami, cheese bite, expanding"}]}]}
